Assay results as given in patent US7709548B2, “Method for manufacturing monosulfonium salt, cationic polymerization initiator, curable composition, and cured product” (San-Apro Limited, priority 2003, dated 2010).

Experiment: Storage stability test (viscosity change of mixture with UVR-6110 stored at 80° C.)
Type: physicochemical
Conditions: measured at 25° C.; for Viscosity after storage for 1 week / Viscosity after storage for 2 weeks / Viscosity after storage for 4 weeks / Viscosity after storage for 6 weeks: stored at 80° C.
Procedure: As an acceleration test for storage stability, a mixture of the cationic polymerization initiator solution and a cationic polymerizable compound was evaluated by measuring its change in the viscosity when stored at a temperature of 80° C.
5 parts of a propylene carbonate solution of the cationic polymerization initiators used in each of Test Examples 5 and 9 was added to 100 parts UVR-6110 (the alicyclic epoxy resin, supra), and 200 g of this mixture was put in a 250 mL brown plastic bottle and stored in an 80° C. thermostat.
3 parts of a propylene carbonate solution of the cationic polymerization initiator used in each of Test Examples 12 and 15 were mixed with 100 parts UVR-6110, and 200 g of this mixture taken in a 250 ml brown plastic bottle and stored in an 80° C. thermostat.
The above-mentioned mixture was adjusted to 25° C. in a thermostatic tank that had been adjusted to 25° C., and the viscosity of the mixture was measured at the start of storage and after one, two, four, and six weeks.

[1] = 3 parts initiator solution per 100 parts UVR-6110
[2] = 5 parts initiator solution per 100 parts UVR-6110

Row | Compound | Viscosity after storage, At start [1] [mPa · s] | Viscosity after storage for 1 week [1] [mPa · s] | Viscosity after storage for 2 weeks [1] [mPa · s] | Viscosity after storage for 4 weeks [1] [mPa · s] | Viscosity after storage for 6 weeks [1] [mPa · s] | Viscosity after storage, At start [2] [mPa · s] | Viscosity after storage for 1 week [2] [mPa · s] | Viscosity after storage for 2 weeks [2] [mPa · s] | Viscosity after storage for 4 weeks [2] [mPa · s] | Viscosity after storage for 6 weeks [2] [mPa · s]
1 | (4-phenylthiophenyl)diphenylsulfonium hexafluoroantimonate [Example 8] | 470 | 470 | 470 | 510 | 650 | – | – | – | – | –
2 | F[P-](F)(F)(F)(F)F.c1ccc(Sc2ccc([S+](c3ccccc3)c3ccccc3)cc2)cc1 [Example 5, (4-phenylthiophenyl)diphenylsulfonium hexafluorophosphonate] | – | – | – | – | – | 480 | 480 | 480 | 500 | 500
